The results in this text go back to paper PMC12040169 (PLOS Biology, 2025).

For orientation: viability means a read-out of living cells in per cent, often relative to untreated cells.

The structures appear in SMILES notation.

One data set is described as follows: in vitro. Particulars: human, hela cells, % viability.
Take `O=C1NN=C(O)C1Cc1ccccc1` (stereo not drawn) [CBK067758]: the viability at 28.5 h, 10 µM was 101%.

For `Cc1nn(C)c(O)c1Cc1c(F)cccc1Cl` [CBK067759], the viability at 28.5 h, 10 µM came to 92.5%.

Regarding `CCCC1=NNC(=O)/C1=C\c1cnc[nH]1` [CBK067767], the viability at 28.5 h, 10 µM worked out at 105%. The same measure, in the same setting: the result for `CC1=NN(c2ccccc2)C(=O)/C1=C\c1ccc(Cl)cc1` [CBK067772] reads 96.7%; that for `CC1=NN(c2ccccc2F)C(=O)C1` [CBK067773], 96.8%; that for `COC(=O)c1csc(-c2ccc(Cl)cc2Cl)n1` [CBK067776], 103%.

As to `O=C(O)c1csc(-c2ccc(Cl)cc2Cl)n1` [CBK067777], the viability at 28.5 h, 10 µM turned out to be 90%. `CC(C)CN(CCc1ccc(O)cc1)CC(=O)NC1(c2ccccc2)CCC1` [CBK067781T]: the viability at 28.5 h, 10 µM is 100%. The same measure, in the same setting: as for `Cc1nn(C)c(Cl)c1S(=O)(=O)Nc1cc(N2CCN(C(=O)OC(C)(C)C)CC2)c2occc2c1` [CBK067787], the figure is 95.8%; as for `CN1CC[C@]2(c3ccc4c(c3)nnn4C)CC[C@@H](NC(=O)Nc3cc(F)cc(C(F)(F)F)c3)C[C@H]12` [CBK067800], 99.2%. With `CC1(C)SC(NCC2CCCCC2)=NC1=O` [CBK067808], the viability at 28.5 h, 10 µM was 91.2%.

On to `CN(C)C(=O)c1sc2ccccc2c1Cl` [CBK067817], for which the viability at 28.5 h, 10 µM turned out to be 82.4%. Consider `COc1ccc(C)cc1S(=O)(=O)Nc1cc(NCCCN2CCOCC2)c2occc2c1` [CBK067837C], for which the viability at 28.5 h, 10 µM was 105%. Still for that read-out and setting: as for `O=S(=O)(Nc1cc(NCCCN2CCOCC2)c2occc2c1)c1ccccc1C(F)(F)F` [CBK067838C], the figure is 94.9%. Same read-out and setting: as for `COc1ccc(C)cc1S(=O)(=O)N(CCO)c1cc(N2CCNCC2)c2occc2c1` [CBK067894C], the figure is 86%; as for `Cc1ccc(S(=O)(=O)Nc2ccnc(-c3ccc(CN4C(=O)CSC4=O)cc3)n2)cc1` [CBK067925], 96.1%; as for `COc1ccc([C@@]23CC[C@@H](NC(=O)Nc4ccc(F)c(F)c4)C[C@@H]2N(C)CC3)cc1C#N` [CBK067952T], 107%. On the same count and under the same terms, as for `CC(C)(C)c1ccc(-c2nnc(SCC(=O)c3ccc(F)cc3)o2)cc1` [CBK067988], the figure is 102%; as for `O=C(Nc1nc(-c2ccccc2)cs1)c1ccc(Br)cc1` [CBK068003], 82.4%. Consider `O=C(O)CSc1nnc(-c2ccc(F)cc2)o1` [CBK068115], for which the viability at 28.5 h, 10 µM was 104%. The same measure, in the same setting: the result for `Cc1cccc(C)c1NC(=O)C(C)Sc1nc2ccccc2c(=O)n1CC1CCCO1` (stereo not drawn) [CBK068151] reads 95%; that for `Cc1nnc(NS(=O)(=O)c2ccc(Br)cc2)s1` [CBK068266], 101%.

Regarding `CCOc1ccc(-c2nnn(CC(N)=O)n2)cc1` [CBK068283], the viability at 28.5 h, 10 µM is 110%.

As to `O=C(c1ccccc1)N1CCN(C(=O)c2ccco2)CC1` [CBK068314], the viability at 28.5 h, 10 µM is 96.6%. Same read-out and setting: as for `CC(=O)Nc1ccc(S(=O)(=O)N2CCN(C(=O)c3ccco3)CC2)cc1` [CBK068319], the figure is 90.5%; as for `O=C(Cc1ccccc1)N1CCN(C(=O)c2ccco2)CC1` [CBK068325], 93.4%; as for `CC(=O)CSc1nnc(-c2ccc(F)cc2)o1` [CBK068327], 110%.

`O=C(c1ccco1)N1CCN(S(=O)(=O)c2ccc(Cl)cc2)CC1` [CBK068411]: the viability at 28.5 h, 10 µM stood at 104%. Same read-out and setting: as for `Cc1ccc2cc(CN(Cc3cccs3)C(=O)NCc3ccccc3)c(=O)[nH]c2c1C` [CBK068496], the figure is 91.2%; as for `O=C(CSc1nnc(-c2ccccc2Br)o1)c1ccc(F)cc1` [CBK068688], 92.2%. Still for that read-out and setting: the result for `COC(=O)c1ccc(S(=O)(=O)N2CCc3ccccc3C2)cc1` [CBK068696] reads 109%; that for `Cc1ccc2[nH]c(=O)c(CN(Cc3ccccc3)C(=O)NC3CCCCC3)cc2c1` [CBK068704], 84.5%. The same measure, in the same setting: as for `O=C(CSc1nnc(-c2cccc(F)c2)o1)c1ccccc1` [CBK068764], the figure is 105%; as for `COCCn1nnnc1C(c1cc2cc(C)cc(C)c2[nH]c1=O)N1CCOCC1` (stereo not drawn) [CBK068815], 95.3%. Regarding `CCCOc1ccc(-c2nnn(CC(=O)OCC)n2)cc1` [CBK068817], the viability at 28.5 h, 10 µM came out at 98.8%. Same read-out and setting: as for `CCOC(=O)CSc1nnc(-c2ccc(Cl)cc2)o1` [CBK068845], the figure is 105%. Same read-out and setting: the result for `COC(=O)Cn1nnc(-c2ccccc2)n1` [CBK069215] reads 84.8%; that for `COCCNC(=O)Cn1nnc(-c2ccc(OC)cc2)n1` [CBK069349], 88.1%.

For `CS(=O)(=O)Nc1nnc(C2CCCCC2)s1` [CBK069540], the viability at 28.5 h, 10 µM was 95.6%. Turning to `CCOC(=O)Cn1nnc(-c2ccc(Cl)cc2)n1` [CBK069596], the viability at 28.5 h, 10 µM worked out at 95.8%. On the same count and under the same terms, the result for `COc1ccc(NC(=O)C2CCCN2S(=O)(=O)c2ccc(OC)cc2)cc1` (stereo not drawn) [CBK070001] reads 78.1%; that for `COc1cccc(-c2csc(N3CCN(C(=O)Nc4ccccc4)CC3)n2)c1` [CBK070275], 95.4%. On the same count and under the same terms, as for `CC(C)C1OC(NCc2ccccc2Cl)=NC1=O` (stereo not drawn) [CBK070344], the figure is 95.1%; as for `COc1ccc(S(=O)(=O)N2CCN(c3ccccc3F)CC2)cc1` [CBK070377], 87.1%; as for `CC(C)C1OC(N2CCOCC2)=NC1=O` (stereo not drawn) [CBK070384], 92.3%.

In the case of `CCC(=O)Nc1nc(-c2ccc(OC)cc2)cs1` [CBK070494], the viability at 28.5 h, 10 µM was 85.7%. Take `CCCCOc1ccc(-c2nnn(C(C)C(=O)O)n2)cc1` (stereo not drawn) [CBK070540]: the viability at 28.5 h, 10 µM came to 103%. For the compound `CCCCOc1ccc(-c2nnn(CC(=O)Nc3ccccc3)n2)cc1` [CBK070609], the viability at 28.5 h, 10 µM was determined as 90.2%. On the same count and under the same terms, the result for `CCNC(=O)Nc1ncc(-c2ccc3c(c2)OCCCO3)c2cccnc12` [CBK070634] reads 104%; that for `CCNC(=O)Nc1ccc2c(-c3ccccc3)ccnc2n1` [CBK070668], 95.6%. On the same count and under the same terms, the result for `CCNC(=O)Nc1ncc(-c2ccsc2)c2cccnc12` [CBK070686] reads 103%.

As for `CCNC(=O)Nc1cc2cccnc2nc1-c1ccc(S(C)(=O)=O)cc1` [CBK070706], the viability at 28.5 h, 10 µM worked out at 93.3%.

Take `O=C(Nc1ccccc1)Nc1nc(=O)n(-c2ccccc2)s1` [CBK070710]: the viability at 28.5 h, 10 µM turned out to be 93%. On the same count and under the same terms, as for `O=C1N=C(NC2CCCCCC2)S[C@@H]1CC1CCCCC1` [CBK070723], the figure is 95.8%. Still for that read-out and setting: the result for `c1ccc2c(c1)OCC(COc1nccnc1OC1CCNCC1)O2` (stereo not drawn) [CBK070766T] reads 102%; that for `COc1ccccc1C(=O)Nc1ccc2nc(SCC(=O)NC3CC3)sc2c1` [CBK070791], 92.7%. The same measure, in the same setting: the result for `CCCCNC(=O)CSc1ncccc1C(=O)NCc1cccnc1` [CBK071590] reads 91%; that for `COCCCNC(=O)c1cnn2c(C)c(Cc3ccccc3Br)c(C)nc12` [CBK071628], 101%. Regarding `CCNC(Cc1ccc2ccccc2c1)C(=O)OC` (stereo not drawn) [CBK071702], the viability at 28.5 h, 10 µM came to 109%.

The same data set, now with this note: human, hela cells, % viability, bulk resorufin, single well.
Regarding `Cc1[nH]c2c(Cl)cc(Cl)cc2c1CCN` [CBK070893], the viability at 28.5 h, 10 µM worked out at 103%.
